Usually IC50 stands for the concentration at which inhibition is half-maximal. A lower IC50 goes with greater potency.

Our source for the IC50 values is ChEMBL document CHEMBL1141236, “Surfing the piperazine core of tricyclic farnesyltransferase inhibitors” (Bioorg Med Chem Lett, 2005).

The first experiment deals with T1, Protein farnesyltransferase (Homo sapiens, UniProt P49354+P49356). The experiment in a line: Inhibitory activity in COS cell Ha-Ras processing assay. The format is functional, cell-based, Chlorocebus aethiops.
For the compound `O=C(NCc1cccnc1)C1CCCN(C2c3ccc(Cl)cc3CCc3cc(Br)cnc32)C1` (stereo not drawn), the IC50 came out at 2000 nM.

For the compound `O=C(CC1CN(C2c3ccc(Cl)cc3CCc3cc(Br)cnc32)CCN1C(=O)CCc1ccccc1)NCc1cccnc1` (stereo not drawn), it took 2000 nM to reach half-maximal inhibition (IC50).

Another experiment concerns the target T1, Protein farnesyltransferase. The experiment in a line: Inhibitory activity against human farnesyltransferase. The format is protein-complex assay.
On to `O=C(CC1CN(C2c3ccc(Cl)cc3CCc3cc(Br)cnc32)CCN1C(=O)Cc1ccncc1)NC1CC1` (stereo not drawn), for which 70 nM corresponded to half-maximal inhibition (IC50). Still for that read-out and setting: then `O=C(NCC1CC1)C1CN(C2c3ccc(Cl)cc3CCc3cc(Br)cnc32)CCN1C(=O)Cc1ccncc1` (stereo not drawn), with 50 nM; and `CNC(=O)C1CN(C2c3ccc(Cl)cc3CCc3cc(Br)cnc32)CCN1C(=O)Cc1ccc(Cl)cc1` (stereo not drawn), with 100 nM. Same read-out and setting: next, `O=C(NCc1cccnc1)C1CCCN(C2c3ccc(Cl)cc3CCc3cc(Br)cnc32)C1` (stereo not drawn): 120 nM; `O=C(NCc1cccnc1)C1CN(C2c3ccc(Cl)cc3CCc3cc(Br)cnc32)CCN1C(=O)CCc1ccccc1` (stereo not drawn): 30 nM. Regarding `O=C(CC1CN(C2c3ccc(Cl)cc3CCc3cc(Br)cnc32)CCN1C(=O)CCc1ccccc1)NCc1cccnc1` (stereo not drawn), inhibition was half-maximal at 960 nM (IC50).
